# Measured values: PMC9025336 (Antibiotics, 2022)
# Peptide text beside a SMILES is read from it. * marks the point of attachment. Orn(α-tetramethylguanidino) = CN(C)C(=N[C@@H](CCCN)C(=O)*)N(C)C
# Assays:
# [1] = test system: 70S ribosome extract of E. coli BW25113; experiment: Fluorescence polarization, Kd of cf-labeled peptides; format: binding, Escherichia coli; conditions: determined for the cf-labeled peptide; BW25113 ribosome extract; 28 °C, 90 min; 95% confidence interval in brackets; triplicate on at least two days; read-out: Kd, BW
# Method: (§1) E. coli BW25113 and E. coli Rosetta pLysS were cultivated in LB medium and harvested at an OD600 of ~4 by centrifugation (5000× g, 30 min, 4 °C). The cell pellets were washed by resuspension in ribosome preparation buffer (20 mmol/L Hepes-KOH, 6 mmol/L MgCl2, 30 mmol/L NH4Cl, pH 7.6, 4°C) and subsequent centrifugation (5000× g, 30 min, 4 °C). Cell pellets were suspended in ribosome preparation buffer ([…]) containing freshly added 2-mercapotethanol (4 mmol/L). Lysozyme was added to the resuspended cells and incubated on ice for 30 min. The cell suspension was disrupted six times using a FastPrep-24^TM 5G instrument (MP Biomedicals, Solon, OH, USA) with BigPrep 50 mL setting (40 s, 4.0 m/s), incubated with DNase I (5 mL/L) on ice for one hour and centrifuged (16,000× g, 30 min, 4 °C). The cell debris was removed from the supernatant by centrifugation (32,000× g, 60 min, 4 °C), and the supernatant was centrifuged again (165,000× g, 17 h, 4 °C). The pellet was resuspended in ribosome preparation buffer (0.1 mL per g cell pellet) to obtain the 70S ribosome extract and stored at −80 °C. The ribosome concentration was estimated by recording the absorbance at 260 nm (1 AU for a ribosome concentration of 28 nmol/L). The molecular weight of the 70S E. coli ribosome was assumed to be 2.3 MDa.
# (§2) Kd was determined using a ribosome extract and cf-labeled peptides in ribosome preparation buffer. Briefly, black 384-well plates (flat bottom, Greiner Bio-One GmbH) were blocked with casein (0.5%, w/v) in phosphate buffer containing 0.05% (v/v) Tween 20 at 4 °C overnight and washed three times with phosphate buffer. A 2-fold dilution series of the ribosome extract (20 μL per well) in ribosome preparation buffer was prepared in a black 384-well plate (23 dilution steps). The cf-labeled peptide was dissolved in ribosome preparation buffer (20 μL, 40 nmol/L), added to each well, and incubated at 28 ± 1 °C. After 90 min, the fluorescence polarization was measured on a PARADIGMTM microplate reader (Beckman Coulter, Salzburg, Austria) in the top read position (λexc = 485 nm, λem = 535 nm) in triplicate on at least two different days. Data were fitted to a nonlinear, dose–response logistical transition equation [y= y0 + a/(1 + (x/x0)b)] using the Levenberg–Marquardt algorithm, with dissociation constants (Kd) represented by the x0 coefficients (GraphPad Prism for Windows v. 5.02, San Diego, CA, USA).
# E. coli Rosetta = experiment: Uptake of cf-labeled PrAMPs; format: cell-based, Escherichia coli
# Method: Bacteria were grown in 25% MHBII medium overnight, diluted fourfold with fresh medium, and incubated to obtain an OD600 of ~1. The cultures were adjusted to an OD600 of 1, and cf-labeled peptide was added to achieve a final concentration of 23 µmol/L (~64 µg/mL). After 0 min, 90 min, and 180 min, two aliquots (300 µL) of the culture were transferred to two tubes. One tube was immediately stored on ice in the dark. The second sample was centrifuged (10,000× g, 4 °C, 3 min), and the supernatant was transferred to a fresh tube and stored on ice in the dark. The pellet was washed with ice cold PBS (300 µL) and centrifuged (10,000× g, 4 °C, 3 min), and the supernatant was transferred into a fresh tube. Both the supernatant and the pellet resuspended in 300 µL ice cold PBS were stored on ice in the dark. After 180 min, an aliquot of the unprocessed sample (100 µL) was transferred to a translucent 96-well plate, and the absorbance was measured at 600 nm. Aliquots (100 µL) of the original cell culture, supernatants, wash solutions, and resuspended pellets were transferred into black 96-well plates to measure the fluorescence in a PARADIGM^TM microplate reader in the top read position (λexc = 485 nm, λem = 535 nm). Experiments were performed three times on different days. The relative fluorescence units were normalized to the measured OD600 values of the cell culture.
# [2] = test system: 70S ribosome extract of E. coli Rosetta DE3 pLysS; experiment: Fluorescence polarization, Kd of cf-labeled peptides; format: binding, Escherichia coli; conditions: determined for the cf-labeled peptide, 28 °C, 90 min, 95% confidence interval in brackets, triplicate on at least two days, read-out: Kd, Ros
# Method: as §1, §2
# [3] = cf-labeled peptides 23 µmol/L, normalized fluorescence after 180 min
SMILES,Kd [1] [nM],uptake in E. coli Rosetta compared with Api137 (E. coli Rosetta; [3]),Kd [2] [nM],"uptake in E. coli Rosetta compared with E. coli BW25113 (E. coli Rosetta; cf-labeled peptide 23 µmol/L, normalized fluorescence (OD600) after 180 min)",uptake in E. coli Rosetta compared with Api88 (E. coli Rosetta; [3]),"normalized uptake of E. coli Rosetta, in words (E. coli Rosetta; cf-labeled peptides 23 µmol/L, 0, 90, 180 min)"
CC[C@H](C)[C@H](NC(=O)[C@H](Cc1ccc(O)cc1)NC(=O)[C@@H](NC(=O)[C@@H]1CCCN1C(=O)[C@H](CCCNC(=N)N)NC(=O)[C@H](CC(N)=O)NC(=O)[C@H](CC(N)=O)NC(=O)[C@H](CCCN)N=C(N(C)C)N(C)C)C(C)C)C(=O)N1CCC[C@H]1C(=O)N[C@@H](CCCNC(=N)N)C(=O)N1CCC[C@H]1C(=O)N[C@@H](CCCNC(=N)N)C(=O)N1CCC[C@H]1C(=O)N1CCC[C@H]1C(=O)N[C@@H](Cc1c[nH]cn1)C(=O)N1CCC[C@H]1C(=O)N[C@@H](CCCNC(=N)N)C(=O)N[C@@H](CC(C)C)C(N)=O [Api88] ({Orn(α-tetramethylguanidino)}-NNRPVYIPRPRPPHPRL-NH2),906,two- to threefold higher,,,,
CC[C@H](C)[C@H](NC(=O)[C@@H]1CCCN1C(=O)[C@H](CCCNC(=N)N)NC(=O)[C@H](CC(N)=O)NC(=O)[C@H](CC(N)=O)NC(=O)CN)C(=O)N[C@@H](Cc1ccc(O)cc1)C(=O)N[C@H](C(=O)N1CCC[C@H]1C(=O)N[C@@H](CCCNC(=N)N)C(=O)N1CCC[C@H]1C(=O)N[C@@H](CCCNC(=N)N)C(=O)N1CCC[C@H]1C(=O)N1CCC[C@H]1C(=O)N[C@@H](Cc1c[nH]cn1)C(=O)N1CCC[C@H]1C(=O)N[C@@H](CCCNC(=N)N)C(=O)N1CCC[C@H]1C(=O)N[C@H](C(=O)N[C@@H](CCCNC(=N)N)C(=O)N[C@H](C(=O)O)C(C)C)[C@@H](C)CC)[C@@H](C)CC [Api805] (H-GNNRPIYIPRPRPPHPRPIRV-OH; N-terminus assumed),557,fivefold higher,515,approximately threefold higher,twofold higher,
CC[C@H](C)[C@H](NC(=O)[C@H](Cc1ccc(O)cc1)NC(=O)[C@@H](NC(=O)[C@@H]1CCCN1C(=O)[C@H](CCCNC(=N)N)NC(=O)[C@H](CC(N)=O)NC(=O)[C@H](CC(N)=O)NC(=O)[C@H](CCCN)N=C(N(C)C)N(C)C)C(C)C)C(=O)N1CCC[C@H]1C(=O)N[C@@H](CCCNC(=N)N)C(=O)N1CCC[C@H]1C(=O)N[C@@H](CCCNC(=N)N)C(=O)N1CCC[C@H]1C(=O)N1CCC[C@H]1C(=O)N[C@@H](Cc1c[nH]cn1)C(=O)N1CCC[C@H]1C(=O)N[C@@H](CCCNC(=N)N)C(=O)N[C@@H](CC(C)C)C(=O)O [Api137] ({Orn(α-tetramethylguanidino)}-NNRPVYIPRPRPPHPRL-OH),382,,198,,,lowest uptake
